# US20090280096A1, “PANCREATIC ENDOCRINE PROGENITOR CELLS DERIVED FROM PLURIPOTENT STEM CELLS” (priority 2008, published 2009)
# B1: BMP4: growth factor BMP-4 (R&D Systems) added to SFD medium days 4-6 (protein, UniProt P12644 293-408, looked up)
# Bone morphogenetic protein 4: SPKHHSQRARKKNKNCRRHSLYVDFSDVGWNDWIVAPPGYQAFYCHGDCPFPLADHLNSTNHAIVQTLVNSVNSSIPKACCVPTELSAISMLYLDEYDKVVLKNYQEMVVEGCGCR
# What was measured:
# [1] = system: pancreatic EBs induced by Pdx1 and Ngn3 (Tet-pdx1/ngn3 ES cells); assay: C-peptide secretion assay (RIA) of EBs stimulated with secretagogues; assay type: cell-based, mouse; details: floating EBs with Dox, SFD without N2 and RA, stimulated 1 hour in HKRB buffer; for stimulation of C-peptide secretion: KCl 30 mM, Forskolin 10 μM, IBMX 0.5 mM; for response of C-peptide secretion to stimulation: glucose 20 mM, tolbutamide 100 μM
# Protocol: Tet-pdx1/ngn3 ES cells were cultured in SFD conditions. Pdx1 and Ngn3 expression was induced with (Dox+) or without (Dox−) Dox after day 4, and cells were harvested at the indicated time points. (A) CXCR4/c-kit^−/− or CXCR4/c-kit^+/+ cells were sorted in day 4 EBs by using a FACS sorter. Sorted cells were reaggregated and replated at day 6 on gelatin coated plates. EBs were harvested at day 9. Ins1 mRNA levels were quantified by real time PCR and normalized to the 18S mRNA levels. (B) N2 media was added to or omitted from the SFD media for days 0-14. B27, with or without retinoic acid (RA), was combined in SFD for days 0-4 and for day 4-14 (also +/−N2). Ins1 mRNA levels were quantified by real time PCR and normalized to the 18S mRNA levels. (C) Tet-pdx1/ngn3 ES cells were cultured in SFD condition without N2 and RA for 18 days. Cytoplasmic insulin was stained and analyzed by FACS. (D) Floating EBs were cultured in SFD without N2 and RA for 18 days, with or without Dox. EBs were incubated in SFD without N2 and RA for 24 hours and supernatants were harvested. C-peptide, glucagon and somatostatin were measured by RIA or EIA. (E) Floating EBs were cultured in SFD without N2 and RA for 19 days and then were unstimulated or stimulated with KCl (3 or 30 mM), glucose (20 mM), tolbutaminde (100 μM), Forskolin (10 μM) or IBMX (0.5 mM) in HKRB buffer for 1 hour. Supernatants were harvested and C-peptide was measured by RIA.
# After culturing EBs for 17-18 days in SFD conditions without N2 and RA with or without Dox (1 μg/ml) as described above, the medium was changed to fresh SFD media containing 2 mM glutamine. The EBs were then incubated for 24 hours as indicated, and the conditioned medium was collected for assay. Concentrations of glucagon and somatostatin in the conditioned medium were measured using enzyme immunoassays (EIAs) specific to glucagon (Yanaihara) or somatostatin (Phoenix Pharmaceuticals) according the manufacturer's instructions. C-peptide was measured by radioimmunoassay (RIA) specific to C-peptide (Linco). For C-peptide secretion assay, day 18 EBs were washed with media were incubated in HEPES-balanced Krebs-Ringer bicarbonate (HKRB) buffer (20 mM HEPES, 103 mM NaCl, 4.8 mM KCl, 0.5 mM CaCl2, 1.2 mM MgSO4, 1.2 mM KH2PO4, 25 mM NaHCO3, 2 mM glucose, pH 7.4) with or without stimulations for 1 hour. C-peptide in the supernatant was measured by a specific RIA. Total protein amounts of EBs in each sample were evaluated by BCA assay and secretion levels for C-peptide, glucagons and somatostatin were adjusted by protein amount.
# To evaluate pancreatic hormone secretion, pancreatic EBs were cultured in SFD without N2 and RA for 16-18 days and then EBs were incubated in fresh SFD media for 24 hours. The secretion of pancreatic hormones such as C-peptide, glucagon and somatostatin in the supernatant was evaluated by RIA or EIA. C-peptide, somatostatin and glucagons were not detected in EBs without Dox stimulation. […] Stimulation of C-peptide secretion by treating endocrine progenitor cells with different agents for one hour was also evaluated (FIG. 6E). C-peptide secretion increased around five fold by the addition of 30 mM potassium chloride (KCl). Forskolin and IBMX, which increase intracellular cAMP, also stimulated C-peptide secretion around 2 fold and 3 fold, respectively. No response to glucose or the inhibitors of KATP channel, glibenclamide and tolbutamide, was detected.
# [2] = system: Ins1 mRNA in Tet-pdx1/ngn3 Ainv ES cell-derived EBs; assay: Ins1 mRNA by real time PCR in EBs cultured in SFD conditions; assay type: cell-based, mouse; details: BMP4 (50 ng/ml) for days 4-6 with Dox, EBs harvested at day 9
# Protocol: Tet-pdx1/ngn3 ES cells were cultured in SFD conditions. Pdx1 and Ngn3 expression was induced with (Dox+) or without (Dox−) Dox after day 4 and cells were harvested at the indicated time points. (A, B) Ins1 mRNA levels were quantified by a real time PCR and normalized to the 18S mRNA levels. A. Day 4 EBs were trypsinized and reaggregated with (closed circles) or without BMP4 (open squares) for days 4-6. EBs were harvested at days 6 and 9. B. At day 6, EBs were replated on gelatin coated dishes and floating EBs were transferred to low-cluster dishes at day 7. Attached monolayer EBs (open bars) and floating EBs (closed bars) were harvested at day 9. (C, D) Floating EBs were cultured in SFD conditions with (closed circles) or without (open squares) Dox. Ins1 (C) or Ins2 (D) mRNA levels were quantified by a real time PCR and normalized to the 18S mRNA levels.
# For a real time PCR, commercially available assay mixes (Applied Biosystems) for Ins1 (Mm01259683_g1), Ins2 (Mm0731595_gH) and 18S (Hs99999901_s1) were used to quantify mRNA levels, and PCR was performed using a Prism 7700 Sequence Detector (Applied Biosystems). […]
# Tet-pdx1/ngn3 Ainv ES cells were cultured in SFD for 2 days and then activin was added for days 2-4 to induce endoderm differentiation. […] Without Dox treatment, Ins1 mRNA was not detected at day 6 or day 9. […]
Molecule,stimulation of C-peptide secretion [1],response of C-peptide secretion to stimulation [1],other results
C=C[C@@]1(C)CC(=O)[C@]2(O)[C@@]3(C)[C@@H](O)CCC(C)(C)[C@@H]3[C@H](O)[C@H](OC(C)=O)[C@@]2(C)O1 [Forskolin],around 2 fold,,
CC(C)Cn1c(=O)n(C)c(=O)c2[nH]cnc21 [IBMX],~3 fold,,
"[Cl-].[K+] [KCl, potassium chloride]",around five,,
COc1ccc(Cl)cc1C(=O)NCCc1ccc(S(=O)(=O)NC(=O)NC2CCCCC2)cc1 [glibenclamide],,No response,
CCCCNC(=O)NS(=O)(=O)c1ccc(C)cc1 [tolbutamide],,No response,
B1,,,Ins1 mRNA level normalized to 18S mRNA [2]: 3.1 % of βTC6
